Test results: US20130261077A1 (priority 2012, published 2013)

How the values were obtained:
FimH-CRD [1] = biological target: T1, FimH-CRD (Escherichia coli, UniProt P08191); assay: Competitive binding assay by fluorescence polarization, assay 2 (compounds prepared by robotics, plates frozen and thawed)
T1 construct: The first 177 amino acids of the FimH protein; thrombin tag (printed as 'fusion protein with thrombin') (cleaved yes); made in house; host or cells: bacteria (pET21b plasmid)
Experimental: The first 177 amino acids of the FimH protein were expressed as a fusion protein with thrombin in a pET21b plasmid in bacteria. This FimH protein sequence contains the carbohydrate recognition domain (CRD) and shall be termed FimH-CRD. Following bacterial expression of the protein, the FimH-CRD protein was purified to homogeneity and the thrombin tag removed by protease cleavage. A competitive binding assay by fluorescence polarization was performed using 5 nM of the Alexa 647 mannoside probe and 60 nM of the FimH-CRD. The samples are assayed in a low volume 384 well microtiter plate in a final volume of 20 μl. The final assay buffer conditions are the following, 50 mM Tris-Cl, ph 7.0, 100 mM NaCl, 1 mM EDTA, 5 mM β-mercaptoethanol, 0.05% BSA and 2.5% DMSO. Two assays are performed for FimH, termed assay 1 or assay 2. The assay conditions are the same for both assays except the following: assay 1 has compounds prepared by manual dilution in a serial dilution factor with 12-point dose response while assay 2 has compounds prepared by a robotics system also through a serial dilution factor (12 point dose response) and initially prepared in duplicate in 384 well-Corning polypropylene round bottom plates. The assay 2 plates have compound which is then frozen and must be thawed prior to use. Initially the Alexa 647 probe and the FimH-CRD are added to the assay buffer and then 0.5 μl of test compound (assay 1 or 2) between 0.4 nM to 75 μM final concentration are added (12 point titration with 3-fold serial dilution). Control wells for the Alexa 647 probe are prepared with the same conditions except for the addition of the FimH-CRD protein. Plates are then incubated for 5 hrs at room temperature in the dark and under humid conditions to prevent drying. Plates are read using the SpectraMax Paradigm multi-mode plate reader and the appropriate fluorescent polarization detection cartridge (Alexa-647).
Alexa 647 mannoside probe is prepared using the similar procedure reported for FAM mannoside (Han, Z. et. al., 2010, J. Med. Chem., 53, 4779) and is described in the scheme below.
To a blue colored stirred solution of (2S,3S,4S,5S,6R)-2-(4-aminobutoxy)-6-(hydroxymethyl)tetrahydropyran-3,4,5-triol (2.21 mg, 0.009 mmol) and the (2E)-2-[(2E,4E)-5-[3,3-dimethyl-5-sulfonato-1-(3-sulfonatopropyl)indol-1-ium-2-yl]penta-2,4-dienylidene]-3-[6-(2,5-dioxopyrrolidin-1-yl)oxy-6-oxo-hexyl]-3-methyl-1-(3-sulfonatopropyl)indoline-5-sulfonate (Potassium Ion (3)) (4.9 mg, 0.0044 mmol) in DMF (44 μL) is added Et3N (5.4 mg, 7.0 μL, 0.053 mmol) at RT. The solution is stirred at room temperature over night, concentrated, dissolved in water and purified on 12 g C-18 silica gel cartridge on Isolera system using acetonitrile in water (0 to 40%, 10 CV) and followed by lyophilization to afford Alexa 647 mannoside probe (3.3 mg, 34%) as deep blue solid.
The Kd values of the compounds are determined from dose response curves using twelve concentrations per compound in duplicate. Curves are fitted to data points using Fluorescence Polarization competitive displacement analysis, and Kds are interpolated from the resulting curves using GraphPad Prism software, version […] (GraphPad software Inc., San Diego, Calif., USA).

FimH-CRD [2] = biological target: T1, FimH-CRD; assay: Competitive binding assay by fluorescence polarization, assay 1 (compounds prepared by manual serial dilution)
Summary of the method: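 Fluorescence-polarization competition of 5 nM Alexa 647 mannoside probe with 60 nM FimH-CRD (first 177 residues, tag removed) in Tris-Cl pH 7.0, NaCl, EDTA, β-ME, BSA, 2.5% DMSO, 5 h at RT in the dark. Twelve-point 3-fold titrations (0.4 nM–75 μM) in duplicate; Kd interpolated from displacement curves.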

T1 sequence (P08191 22-177): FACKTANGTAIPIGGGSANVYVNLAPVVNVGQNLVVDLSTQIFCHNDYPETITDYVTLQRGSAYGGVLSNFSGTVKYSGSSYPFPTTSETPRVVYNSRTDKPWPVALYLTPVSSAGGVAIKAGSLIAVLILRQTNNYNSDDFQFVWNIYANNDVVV

| Structure (SMILES) | Kd (FimH-CRD [1]) [nM] | IC50 (FimH-CRD [2]) [nM] | Kd (FimH-CRD [2]) [nM] |
| --- | --- | --- | --- |
| C#Cc1cccc([C@H]2O[C@H](CO)[C@@H](O)[C@H](O)[C@@H]2O)c1 [Compound 73, ((2R,3S,4R,5S,6R)-2-(3-Ethynylphenyl)-6-(hydroxymethyl)tetrahydropyran-3,4,5-triol)] | 33.8 ± 13.6 |  |  |
| C#Cc1ccc([C@H]2O[C@H](CO)[C@@H](O)[C@H](O)[C@@H]2O)cc1 [Compound 74, (2R,3S,4R,5S,6R)-2-(4-Ethynylphenyl)-6-(hydroxymethyl)tetrahydropyran-3,4,5-triol] | 26.4 ± 14.3 |  |  |
| C#Cc1cc([C@H]2O[C@H](CO)[C@@H](O)[C@H](O)[C@@H]2O)ccc1OC [Compound 75, (2R,3S,4R,5S,6R)-2-(3-Ethynyl-4-methoxy-phenyl)-6-(hydroxymethyl)tetrahydropyran-3,4,5-triol] | 40 ± 11.3 |  |  |
| OC[C@H]1O[C@H](O[C@@H]2[C@H](O)[C@@H](c3cccc(-c4cncnc4)c3)O[C@H](CO)[C@H]2O)[C@@H](O)[C@@H](O)[C@@H]1O [Compound 279, (2R,3S,4S,5S,6R)-2-[(2R,3R,4R,5R,6R)-3,5-Dihydroxy-2-(hydroxymethyl)-6-(3-pyrimidin-5-ylphenyl)tetrahydropyran-4-yl]oxy-6-(hydroxymethyl)tetrahydropyran-3,4,5-triol] |  | 51 | 9.9 ± 1.1 |
| Cn1cnc2ccc(-c3cccc([C@H]4O[C@H](CO)[C@@H](O)[C@H](O[C@H]5O[C@H](CO)[C@@H](O)[C@H](O)[C@@H]5O)[C@@H]4O)c3)cc21 [Compound 280, (2R,3S,4S,5S,6R)-2-[(2R,3R,4R,5R,6R)-3,5-Dihydroxy-2-(hydroxymethyl)-6-[3-(3-methylbenzimidazol-5-yl)phenyl]tetrahydropyran-4-yl]oxy-6-(hydroxymethyl)tetrahydropyran-3,4,5-triol (Trifluoroacetate Ion (1))] |  | 59 | 18.1 ± 7.1 |
| C=CC[C@H]1O[C@H](CO)[C@@H](O)[C@H](O[C@H]2O[C@H](CO)[C@@H](O)[C@H](O)[C@@H]2O)[C@@H]1O [Compound 281, (2R,3S,4S,5S,6R)-2-[(2R,3R,4R,5R,6R)-2-Allyl-3,5-dihydroxy-6-(hydroxymethyl)tetrahydropyran-4-yl]oxy-6-(hydro I amymethyl)tetrahydropyran-3,4,5-triol] |  | 216 | 51.1 ± 7.6 |
| OC[C@H]1O[C@H](O[C@H]2[C@H](O)[C@@H](CO)O[C@H](C/C=C/C3CCCCC3)[C@H]2O)[C@@H](O)[C@@H](O)[C@@H]1O [Compound 282, (2R,3S,4S,5S,6R)-2-[(2R,3R,4R,5R,6R)-2-[(E)-3-Cyclohexylallyl]-3,5-dihydroxy-6-(hydroxymethyl)tetrahydropyran-4-yl]oxy-6-(hydroxymethyl)tetrahydropyran-3,4,5-triol] |  | 212 | 40.6 ± 0.03 |
| COC(=O)c1ccc(CCC[C@H]2O[C@H](CO)[C@@H](O)[C@H](O[C@H]3O[C@H](CO)[C@@H](O)[C@H](O)[C@@H]3O)[C@@H]2O)cc1 [Compound 283, Methyl 4-[3-[(2R,3R,4R,5R,6R)-3,5-dihydroxy-6-(hydroxymethyl)-4-[(2R,3S,4S,5S,6R)-3,4,5-trihydroxy-6-(hydroxymethyl)tetrahydropyran-2-yl]oxy-tetrahydropyran-2-yl]propyl]benzoate] |  | 27 | 10.8 ± 4.1 |
| COc1cccc([C@H]2O[C@H](CO)[C@@H](O)[C@H](O[C@H]3O[C@H](CO)[C@@H](O)[C@H](O)[C@@H]3O)[C@@H]2O)c1 [Compound 284, (2R,3S,4S,5S,6R)-2-[(2R,3R,4R,5R,6R)-3,5-Dihydroxy-2-(hydroxymethyl)-6-(3-methoxyphenyl)tetrahydropyran-4-yl]oxy-6-(hydroxymethyl)tetrahydropyran-3,4,5-triol] |  | 49 | 166 ± 96.5 |
| OC[C@H]1O[C@H](O[C@@H]2[C@H](O)[C@@H](c3cccc(OCC4CCCC4)c3)O[C@H](CO)[C@H]2O)[C@@H](O)[C@@H](O)[C@@H]1O [Compound 285, (2R,3S,4S,5S,6R)-2-[(2R,3R,4R,5R,6R)-2-[3-(Cyclopentylmethoxy)phenyl]-3,5-dihydroxy-6-(hydroxymethyl)tetrahydropyran-4-yl]oxy-6-(hydroxymethyl)-tetrahydropyran-3,4,5-triol] |  | 80 | 14.7 ± 1.2 |
| OC[C@H]1O[C@H](O[C@@H]2[C@H](O)[C@@H](c3cccc(OCCF)c3)O[C@H](CO)[C@H]2O)[C@@H](O)[C@@H](O)[C@@H]1O [Compound 287, (2R,3S,4S,5S,6R)-2-[(2R,3R,4R,5R,6R)-2-[3-(2-Fluoroethoxy)phenyl]-3,5-dihydroxy-6-(hydroxymethyl)tetrahydropyran-4-yl]oxy-6-(hydroxymethyl)tetrahydropyran-3,4,5-triol] |  | 107 | 32.2 ± 8.5 |
| CNC(=O)COc1cccc([C@H]2O[C@H](CO)[C@@H](O)[C@H](O[C@H]3O[C@H](CO)[C@@H](O)[C@H](O)[C@@H]3O)[C@@H]2O)c1 [Compound 288, 2-[3-[(2R,3R,4R,5R,6R)-3,5-dihydroxy-6-(hydroxymethyl)-4-[(2R,3S,4S,5S,6R)-3,4,5-trihydroxy-6-(hydroxymethyl)tetrahydropyran-2-yl]oxy-tetrahydropyran-2-yl]phenoxy]-N-methyl-acetamide] |  | 46 | 28.7 ± 25.6 |
| COc1ccc([C@H]2O[C@H](CO)[C@@H](O)[C@H](O[C@H]3O[C@H](CO)[C@@H](O)[C@H](O)[C@@H]3O)[C@@H]2O)cc1O [Compound 289, (2R,3S,4S,5S,6R)-2-[(2R,3R,4R,5R,6R)-3,5-Dihydroxy-2-(3-hydroxy-4-methoxy-phenyl)-6-(hydroxymethyl)tetrahydropyran-4-yl]oxy-6-(hydroxymethyl)tetrahydropyran-3,4,5-triol] |  | 175 | 162 ± 241 |
| COc1ccc(C2O[C@H](CO)[C@@H](O)[C@H](O[C@H]3O[C@H](CO)[C@@H](O)[C@H](O)[C@@H]3O)[C@@H]2O)cc1Oc1ccc(NC(=O)C(C)C)cc1 (stereo partly drawn) [Compound 290] |  | 29 | 11.9 ± 4.9 |
| CNC(=O)c1cccc(Oc2ccc([C@H]3O[C@H](CO)[C@@H](O)[C@H](O)[C@@H]3O)cc2)c1 [Compound 292, N-methyl-3-(4-((2R,3S,4R,5S,6R)-3,4,5-trihydroxy-6-(hydroxymethyl)tetrahydro-2H-pyran-2-yl)phenoxy)benzamide] |  |  | 6 ± 0.4 |
| COC(=O)Cc1cccc(Oc2ccc([C@H]3O[C@H](CO)[C@@H](O)[C@H](O)[C@@H]3O)cc2)c1 [Compound 293, methyl 2-(3-(4-((2R,3S,4R,5S,6R)-3,4,5-trihydroxy-6-(hydroxymethyl)tetrahydro-2H-pyran-2-yl)phenoxy)phenyl)acetate] |  |  | 9 ± 2 |
| COC(=O)c1cccc(-c2ccc([C@H]3O[C@H](CO)[C@@H](O)[C@H](O)[C@@H]3O)cc2)c1 [Compound 294, methyl 4′-((2R,3S,4R,5S,6R)-3,4,5-trihydroxy-6-(hydroxymethyl)tetrahydro-2H-pyran-2-yl)-[1,1′-biphenyl]-3-carboxylate] |  |  | 11 ± 3 |
| CNC(=O)c1cccc(-c2ccc([C@H]3O[C@H](CO)[C@@H](O)[C@H](O)[C@@H]3O)cc2)c1 [Compound 295, N-methyl-4′-((2R,3S,4R,5S,6R)-3,4,5-trihydroxy-6-(hydroxymethyl)tetrahydro-2H-pyran-2-yl)-[1,1′-biphenyl]-3-carboxamide] |  |  | 12 ± 3 |
| CNC(=O)c1ccc(-c2ccc([C@H]3O[C@H](CO)[C@@H](O)[C@H](O)[C@@H]3O)cc2)cc1 [Compound 296, N-methyl-4′-((2R,3S,4R,5S,6R)-3,4,5-trihydroxy-6-(hydroxymethyl)tetrahydro-2H-pyran-2-yl)-[1,1′-biphenyl]-4-carboxamide] |  |  | 5 ± 0.4 |
